# Measured values from patent publication US10738056B2 (Aduro BioTech, Inc., priority 2017, dated 2020).
# pIC50: −log10 of the molar value.
# Molecular target: Human cGAS amino acids 155-522 (Homo sapiens (Human), UniProt Q8N884)
# Test: cGAS biochemical activity assay (ATP remaining, Kinase-Glo Max luminescence)
# Conditions: human cGAS 155-522, ATP remaining (Kinase-Glo Max); read-out: cGAS IC50
# Sequence of Human cGAS amino acids 155-522 (Q8N884 157-522): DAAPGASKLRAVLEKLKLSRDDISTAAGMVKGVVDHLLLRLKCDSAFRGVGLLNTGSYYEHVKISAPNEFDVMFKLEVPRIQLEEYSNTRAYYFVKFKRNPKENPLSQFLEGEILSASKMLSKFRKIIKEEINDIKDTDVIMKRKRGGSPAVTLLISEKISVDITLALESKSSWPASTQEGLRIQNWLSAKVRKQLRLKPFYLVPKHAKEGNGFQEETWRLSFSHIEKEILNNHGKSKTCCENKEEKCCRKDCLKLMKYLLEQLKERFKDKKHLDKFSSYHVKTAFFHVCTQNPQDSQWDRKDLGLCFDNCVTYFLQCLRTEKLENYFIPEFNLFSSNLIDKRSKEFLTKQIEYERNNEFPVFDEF
row,Compound,pIC50
1,"Cc1[nH]c2c(-c3ccccc3)c(C(F)(F)F)nn2c(=O)c1-c1nnc(N2CCCC(N)C2)o1 (centres unmarked) [Compound D1084, 6-(5-(3-aminopiperidin-1-yl)-1,3,4-oxadiazol-2-yl)-5-methyl-3-phenyl-2-(trifluoromethyl)pyrazolo[1,5-a]pyrimidin-7(4H)-one]",> 4.70
2,"COc1cccc2oc(-c3c(OCCN(C)C)[nH]c4c(-c5ccccc5)c(C(F)(F)F)nn4c3=O)nc12 [Compound C1067, 5-(2-(dimethylamino)ethoxy)-6-(4-methoxybenzo[d]oxazol-2-yl)-3-phenyl-2-(trifluoromethyl)pyrazolo[1,5-a]pyrimidin-7(4H)-one]",< 3.60
3,"Cc1[nH]c2c(-c3ccccc3)c(C(F)(F)F)nn2c(=O)c1-c1nc2cc(Cl)ccc2o1 [Compound C1028, 6-(5-chlorobenzo[d]oxazol-2-yl)-5-methyl-3-phenyl-2-(trifluoromethyl)pyrazolo[1,5-a]pyrimidin-7(4H)-one]",< 3.60
4,"COc1cccc2c1nc(-c1c(C)[nH]c3c(-c4ccccc4)c(C(F)(F)F)nn3c1=O)n2C [Compound C1087, 6-(4-methoxy-1-methyl-1H-benzo[d]imidazol-2-yl)-5-methyl-3-phenyl-2-(trifluoromethyl)pyrazolo[1,5-a]pyrimidin-7(4H)-one]",3.60 to 4.70
5,"COCCOc1nn2c(=O)c(-c3nc4c(OC)cccc4o3)c(C)[nH]c2c1-c1ccccc1 [Compound C1083, 6-(4-methoxybenzo[d]oxazol-2-yl)-2-(2-methoxyethoxy)-5-methyl-3-phenylpyrazolo[1,5-a]pyrimidin-7(4H)-one]",< 3.60
6,"Cc1[nH]c2c(-c3ccccc3)c(C(F)(F)F)nn2c(=O)c1C(=O)Nc1ccnnc1 [Compound A1018, 5-methyl-7-oxo-3-phenyl-N-(pyridazin-4-yl)-2-(trifluoromethyl)-4,7-dihydropyrazolo[1,5-a]pyrimidine-6-carboxamide]",3.60 to 4.70
7,"Cc1[nH]c2c(-c3ccccc3)c(C(F)(F)F)nn2c(=O)c1C(=O)Nc1ccccc1N1CCCC1 [Compound A1054, 5-methyl-7-oxo-3-phenyl-N-(2-(pyrrolidin-1-yl)phenyl)-2-(trifluoromethyl)-4,7-dihydropyrazolo[1,5-a]pyrimidine-6-carboxamide]",3.60 to 4.70
8,"Cc1[nH]c2c(C3CC3)c(C(F)(F)F)nn2c(=O)c1Cc1ccccc1 [Compound C1264, 6-benzyl-3-cyclopropyl-5-methyl-2-(trifluoromethyl)pyrazolo[1,5-a]pyrimidin-7(4H)-one]",< 3.60
9,"Cc1[nH]c2c(-c3ccccc3)c(C(F)(F)F)nn2c(=O)c1Cc1nnc(C2CCCCC2)o1 [Compound D1035, 6-((5-cyclohexyl-1,3,4-oxadiazol-2-yl)methyl)-5-methyl-3-phenyl-2-(trifluoromethyl)pyrazolo[1,5-a]pyrimidin-7(4H)-one]",3.60 to 4.70
10,"Cc1[nH]c2c(-c3ccccc3)c(C(F)(F)F)nn2c(=O)c1-c1nnc(N2CCCC(CN)C2)o1 (centres unmarked) [Compound D1083, 6-(5-(3-(aminomethyl)piperidin-1-yl)-1,3,4-oxadiazol-2-yl)-5-methyl-3-phenyl-2-(trifluoromethyl)pyrazolo[1,5-a]pyrimidin-7(4H)-one]",3.60 to 4.70
11,"Cc1[nH]c2c(-c3ccccc3)c(C(F)(F)F)nn2c(=O)c1-c1nnc(N)o1 [Compound D1075, 6-(5-amino-1,3,4-oxadiazol-2-yl)-5-methyl-3-phenyl-2-(trifluoromethyl)pyrazolo[1,5-a]pyrimidin-7(4H)-one]",3.60 to 4.70
12,"Cc1[nH]c2c(-c3ccccc3)c(C(F)(F)F)nn2c(=O)c1-c1nnc(N2CCCCC2CCNS(C)(=O)=O)o1 (centres unmarked) [Compound D1073, N-(2-(1-(5-(5-methyl-7-oxo-3-phenyl-2-(trifluoromethyl)-4,7-dihydropyrazolo[1,5-a]pyrimidin-6-yl)-1,3,4-oxadiazol-2-yl)piperidin-2-yl)ethyl)methanesulfonamide]",> 4.70
13,"Cc1[nH]c2c(-c3ccccc3)c(C(F)(F)F)nn2c(=O)c1CC(=O)Nc1cccnc1 [Compound B1008, 2-(5-methyl-7-oxo-3-phenyl-2-(trifluoromethyl)-4,7-dihydropyrazolo[1,5-a]pyrimidin-6-yl)-N-(pyridin-3-yl)acetamide]",3.60 to 4.70
14,"Cc1[nH]c2c(-c3ccccc3)c(C(F)(F)F)nn2c(=O)c1-c1nnc(C2CCCC2)o1 [Compound D1003, 6-(5-cyclopentyl-1,3,4-oxadiazol-2-yl)-5-methyl-3-phenyl-2-(trifluoromethyl)pyrazolo[1,5-a]pyrimidin-7(4H)-one]",> 4.70
15,"Cc1[nH]c2c(-c3ccccc3)c(C(F)(F)F)nn2c(=O)c1-c1nnc(N2CCCCC2CCN)o1 (centres unmarked) [Compound D1069, 6-(5-(2-(2-aminoethyl)piperidin-1-yl)-1,3,4-oxadiazol-2-yl)-5-methyl-3-phenyl-2-(trifluoromethyl)pyrazolo[1,5-a]pyrimidin-7(4H)-one]",3.60 to 4.70
16,"Cc1[nH]c2c(-c3ccccc3)c(C(F)(F)F)nn2c(=O)c1-c1nnc(CC2CCN(C)CC2)o1 [Compound D1065, 5-methyl-6-(5-((1-methylpiperidin-4-yl)methyl)-1,3,4-oxadiazol-2-yl)-3-phenyl-2-(trifluoromethyl)pyrazolo[1,5-a]pyrimidin-7(4H)-one]",3.60 to 4.70

row,Compound,pIC50
1,"COc1cccc2oc(-c3c(C)[nH]c4c(-c5ccccc5)c(OC5CCOCC5)nn4c3=O)nc12 [Compound C1080, 6-(4-methoxybenzo[d]oxazol-2-yl)-5-methyl-3-phenyl-2-((tetrahydro-2H-pyran-4-yl)oxy)pyrazolo[1,5-a]pyrimidin-7(4H)-one]",3.60 to 4.70
2,"Cc1[nH]c2c(-c3ccccc3)c(C(F)(F)F)nn2c(=O)c1-c1nnc(-c2cccc(N)c2)o1 [Compound D1079, 6-(5-(3-aminophenyl)-1,3,4-oxadiazol-2-yl)-5-methyl-3-phenyl-2-(trifluoromethyl)pyrazolo[1,5-a]pyrimidin-7(4H)-one]",< 3.60
3,CO[C@H]1CCCC1c1nnc(-c2c(C)[nH]c3c(-c4ccccc4)c(C(F)(F)F)nn3c2=O)o1 (some centres unmarked) [D1049 Iso-1],> 4.70
4,"Cc1[nH]c2c(-c3cccc(F)c3)c(C(F)(F)F)nn2c(=O)c1-c1nc2c(o1)CCCC2 [Compound C1035, 3-(3-fluorophenyl)-5-methyl-6-(4,5,6,7-tetrahydrobenzo[d]oxazol-2-yl)-2-(trifluoromethyl)pyrazolo[1,5-a]pyrimidin-7(4H)-one]",< 3.60
5,"COc1cccc2oc(-c3c(COCC(N)=O)[nH]c4c(-c5ccccc5)c(C(F)(F)F)nn4c3=O)nc12 [Compound C1198, 2-((6-(4-methoxybenzo[d]oxazol-2-yl)-7-oxo-3-phenyl-2-(trifluoromethyl)-4,7-dihydropyrazolo[1,5-a]pyrimidin-5-yl)methoxy)acetamide]",3.60 to 4.70
6,COc1cccc2oc(-c3c(C)[nH]c4c(-c5ccc(C)cc5)c(C(F)(F)F)nn4c3=O)nc12 [Compound C1171],3.60 to 4.70
7,"Cc1[nH]c2c(-c3ccccc3)c(C(F)(F)F)nn2c(=O)c1C(=O)NC1CCOCC1 [Compound A1025, 5-methyl-7-oxo-3-phenyl-N-(tetrahydro-2H-pyran-4-yl)-2-(trifluoromethyl)-4,7-dihydropyrazolo[1,5-a]pyrimidine-6-carboxamide]",3.60 to 4.70
8,"COc1cccc2oc(-c3c(C4CCC(C(=O)O)CC4)[nH]c4c(-c5ccccc5)c(C(F)(F)F)nn4c3=O)nc12 (single isomer, unassigned) [Compound C1237, 4-(6-(4-methoxybenzo[d]oxazol-2-yl)-7-oxo-3-phenyl-2-(trifluoromethyl)-4,7-dihydropyrazolo[1,5-a]pyrimidin-5-yl)cyclohexane-1-carboxylic acid]",3.60 to 4.70
9,"Cc1[nH]c2c(-c3ccccc3)c(C(F)(F)F)nn2c(=O)c1-c1nnc(-c2ccc(N)cc2)o1 [Compound D1081, 6-(5-(4-aminophenyl)-1,3,4-oxadiazol-2-yl)-5-methyl-3-phenyl-2-(trifluoromethyl)pyrazolo[1,5-a]pyrimidin-7(4H)-one]",< 3.60
10,"COc1cccc2oc(-c3c(C(=O)N[C@H](CO)C(C)C)[nH]c4c(-c5ccccc5)c(C(F)(F)F)nn4c3=O)nc12 [Compound C1208, (S)-N-(1-hydroxy-3-methylbutan-2-yl)-6-(4-methoxybenzo[d]oxazol-2-yl)-7-oxo-3-phenyl-2-(trifluoromethyl)-4,7-dihydropyrazolo[1,5-a]pyrimidine-5-carboxamide]",3.60 to 4.70
11,"COc1cccc2oc(-c3c(C)[nH]c4c(-c5ccccc5C#N)c(C(F)(F)F)nn4c3=O)nc12 [Compound C1148, 2-(6-(4-methoxybenzo[d]oxazol-2-yl)-5-methyl-7-oxo-2-(trifluoromethyl)-4,7-dihydropyrazolo[1,5-a]pyrimidin-3-yl)benzonitrile]",3.60 to 4.70
12,"Cc1[nH]c2c(-c3ccccc3)c(C(F)(F)F)nn2c(=O)c1-c1nnc(N(C)C2CCCCC2)o1 [Compound D1043, 6-(5-(cyclohexyl(methyl)amino)-1,3,4-oxadiazol-2-yl)-5-methyl-3-phenyl-2-(trifluoromethyl)pyrazolo[1,5-a]pyrimidin-7(4H)-one]",< 3.60
13,"Cc1nc(-c2c(C)[nH]c3c(-c4ccccc4)c(C(F)(F)F)nn3c2=O)[nH]c1C [Compound C1021, 6-(4,5-dimethyl-1H-imidazol-2-yl)-5-methyl-3-phenyl-2-(trifluoromethyl)pyrazolo[1,5-a]pyrimidin-7(4H)-one]",3.60 to 4.70
14,"Cc1[nH]c2c(-c3ccccc3)c(C(F)(F)F)nn2c(=O)c1N1Cc2ccccc2C1=O [Compound C1214, 5-methyl-6-(1-oxoisoindolin-2-yl)-3-phenyl-2-(trifluoromethyl)pyrazolo[1,5-a]pyrimidin-7(4H)-one]",3.60 to 4.70
15,"COc1cccc2oc(-c3c(C(C)=O)[nH]c4c(-c5ccccc5)c(C(F)(F)F)nn4c3=O)nc12 [Compound C1144, 5-acetyl-6-(4-methoxybenzo[d]oxazol-2-yl)-3-phenyl-2-(trifluoromethyl)pyrazolo[1,5-a]pyrimidin-7(4H)-one]",3.60 to 4.70
16,"Cc1[nH]c2c(-c3ccccc3)c(C(F)(F)F)nn2c(=O)c1-c1nnc(N2CCOCC2)o1 [Compound D1009, 5-methyl-6-(5-morpholino-1,3,4-oxadiazol-2-yl)-3-phenyl-2-(trifluoromethyl)pyrazolo[1,5-a]pyrimidin-7(4H)-one]",3.60 to 4.70
